Earlier results, collected in US11602509B2, “Salt of cysteamine for the preparation of highly respirable particles” (RECORDATI INDUSTRIA CHIMICA E FARMACEUTICA SPA, priority 2018, dated 2023).

pKa: 9.42
SMILES: NCCS [cysteamine free base, cysteamine]
